# Reference: patent publication US11534434B2 (Karuna Therapeutics, Inc., priority 2019, dated 2022)
# What was measured:
# [1] = Human liver microsome stability; assay type: in vitro ADME; conditions: human liver microsomes; for microsomal CLint at 100 nM: apparent intrinsic clearance, no unit in table (μL/min/pmol, μL/min/mg or μL/min/Mcell); for Parent at 60 min (%) / half-life at 100 nM: 100 nM, 37° C., tartrate salt
# Method: Human Liver Microsome Stability
# Test compounds were dissolved in DMSO to prepare 10 mM stock solutions, diluted to a final test concentration of 100 nM, and incubated at 37° C. with human liver microsomes. Metabolic stability, expressed as a percent of the parent compound remaining, was assessed at 0, 15, 30, 45, and 60 minutes and calculated by comparing the compound's peak area at the time point relative to that at time-0. The half-life (T1/2) was estimated from the slope of the initial linear range of the logarithmic curve of compound remaining (%) vs. time, assuming first-order kinetics. The apparent intrinsic clearance (CLint, in μL/min/pmol, μL/min/mg or μL/min/Mcell) was calculated according to the following formula: CLint=0.693 T1/2*(mg protein/μL or million cells/μL or pmol CYP isoyme/μL).
# human M3 mAChR = target: T1, human M3 mAChR (Homo sapiens, UniProt P20309); assay: Whole-cell functional agonist activity, FLIPR Ca2+ release, U2OS-based human M3 mAChR stable cell line; conditions: for EC50: agonist, FLIPR Ca2+ release, U2OS human M3 cells; for Emax: top of curve, % activity vs MAX control ligand, FLIPR Ca2+
# T1 construct: expressed in transfected cells
# Description: (§1) Whole-cell functional agonist activity in cells expressing recombinant human muscarinic receptor subtypes.
# (§2) ThermoFisher's FLIPR™ (Fluorescence Imaging Plate Reader) was used to quantify Ca^2+ release, a functional effect associated with Gaq-coupled M1 and M5 mAChRs. CisBio's phospho-ERK (pERK) Thr202/Tyr204 was used to evaluate Gai/o-coupled M2 and M4 mAChRs responses.
# One day before the assay, M1, M3, and M5 cells were thawed out and plated at 10,000 cells/well into black-walled, clear-bottom, Poly-D-lysine coated 384-well microplates and incubated at 37° C. and 5% CO2 in MEME+10% FBS+1× penicillin/streptomycin/glutamine, for the M1 and M3 cell lines and F-12+10% FBS+1× penicillin/streptomycin/glutamine for the M5 cell line. On the day of the test, the media was aspirated and replaced with […] fluo-4 dye loading buffer (1× dye, 1× additive A and 2.5 mM fresh probenecid in HBSS and 20 mM HEPES) and incubated at 37° C. and 5% CO2 for 45 minutes. After the incubation, cells were removed from the incubator, […] of HBSS and 20 mM HEPES was added for a total volume of […], and the cells were allowed to equilibrate at room temperature for 15 minutes in the dark before compounds were applied, by adding 4× compound solution in […] of HBSS, 0.4% DMSO and 20 mM HEPES buffer (made from a 10 mM compound stock solution in 100% DMSO), and responses were recorded for 2 minutes in FLIPR Tetra after compound administration. The M1 and M5 responses were analyzed using the CBIS data analysis suite (ChemInnovation, CA).
# (§3) Percentage activity was calculated using the following formula: % Activity=100%×(mean RFU of test sample mean RFU of vehicle control)/(mean MAX RFU control ligand mean RFU of vehicle control) where RFU is relative fluorescence unit. The M2 and the M4 cells were thawed out one day before the assay and plated at 2,000 and 1,000 cells per well, respectively, in […] of DMEM/F12+10% FBS in ProxiPlate 384-well white-walled, white-bottom tissue culture-treated plates and incubated at 37° C. and 5% CO2 overnight. Before the assay, cells were serum-starved at 37° C. in 5% CO2 for 4 hours by replacing culture media with […] of F12 media with 8 mM HEPES. The pERK assay was run according to assay kit instructions with minor volume modifications outlined below.
# human M1 mAChR = target: T2, human M1 mAChR (Homo sapiens, UniProt P11229); assay: Whole-cell functional agonist activity, FLIPR Ca2+ release, U2OS-based human M1 mAChR stable cell line; conditions: for EC50: agonist, FLIPR Ca2+ release, U2OS human M1 cells; for Emax: top of curve, % activity vs MAX control ligand, FLIPR Ca2+
# T2 construct: expressed in transfected cells
# T2 sequence (P11229 1-460): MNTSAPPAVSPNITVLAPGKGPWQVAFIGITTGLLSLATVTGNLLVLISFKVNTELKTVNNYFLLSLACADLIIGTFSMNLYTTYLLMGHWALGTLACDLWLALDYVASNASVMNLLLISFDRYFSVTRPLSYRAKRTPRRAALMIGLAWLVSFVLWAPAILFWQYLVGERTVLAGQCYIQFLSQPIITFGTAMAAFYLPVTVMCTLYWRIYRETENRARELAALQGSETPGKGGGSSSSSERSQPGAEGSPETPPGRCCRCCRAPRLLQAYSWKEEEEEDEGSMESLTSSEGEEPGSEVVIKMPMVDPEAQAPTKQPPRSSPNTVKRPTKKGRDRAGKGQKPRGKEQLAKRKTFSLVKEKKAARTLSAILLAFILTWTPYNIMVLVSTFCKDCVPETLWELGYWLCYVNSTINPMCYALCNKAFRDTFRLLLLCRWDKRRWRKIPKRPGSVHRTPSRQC
# Description: as §1, §2
# One day before the assay, M1, M3, and M5 cells were thawed out and plated at 10,000 cells/well into black-walled, clear-bottom, Poly-D-lysine coated 384-well microplates and incubated at 37° C. and 5% CO2 in MEME+10% FBS+1× penicillin/streptomycin/glutamine, for the M1 and M3 cell lines and F-12+10% FBS+1× penicillin/streptomycin/glutamine for the M5 cell line. […] The M1 and M5 responses were analyzed using the CBIS data analysis suite (ChemInnovation, CA).
# as §3
# [2] = Storage stability of the tartrate salt (reanalysis by LC-MS, 1H NMR, 19F NMR); assay type: physicochemical; conditions: six months of storage at 0° C.; LC-MS, 1H NMR, 19F NMR
# Method: The tartrate salt of the title compound was unstable at test storage conditions. Although the initial NMR spectra were clean, the LCMS purity was about 75%. After storage at 0° C. for six months, the sample was reanalyzed by ^1H-NMR, ^19F-NMR, and LC-MS.
# T1 sequence (P20309 whole entry): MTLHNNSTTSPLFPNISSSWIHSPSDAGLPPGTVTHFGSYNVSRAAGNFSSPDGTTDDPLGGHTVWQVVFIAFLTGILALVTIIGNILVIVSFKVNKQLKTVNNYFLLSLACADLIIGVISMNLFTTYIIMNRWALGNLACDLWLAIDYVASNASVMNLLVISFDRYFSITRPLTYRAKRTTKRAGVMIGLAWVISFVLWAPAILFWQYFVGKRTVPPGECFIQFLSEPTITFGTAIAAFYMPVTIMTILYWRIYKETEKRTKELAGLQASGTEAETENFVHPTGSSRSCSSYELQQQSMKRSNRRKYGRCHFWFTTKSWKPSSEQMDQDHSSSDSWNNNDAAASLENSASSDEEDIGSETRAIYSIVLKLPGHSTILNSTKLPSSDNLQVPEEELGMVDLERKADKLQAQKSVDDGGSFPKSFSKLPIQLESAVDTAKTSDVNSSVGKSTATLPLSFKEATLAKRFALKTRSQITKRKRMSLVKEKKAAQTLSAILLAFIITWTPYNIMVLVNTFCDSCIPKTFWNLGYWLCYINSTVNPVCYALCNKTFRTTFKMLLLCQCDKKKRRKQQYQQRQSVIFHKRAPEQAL
SMILES,microsomal CLint at 100 nM [1] [µL/min/mg],Parent at 60 min (%) [1] [%],half-life at 100 nM [1] [min],EC50 (human M3 mAChR) [nM],Emax (human M3 mAChR) [%],EC50 (human M1 mAChR) [nM],Emax (human M1 mAChR) [%],storage stability of tartrate salt [2]
"CCC(F)(F)CCCOc1nsnc1C1=CCCN(C)C1 [Example 9, 3-((4,4-Difluorohexyl)oxy)-4-(1-methyl-1,2,5,6-tetrahydropyridin-3-yl)-1,2,5-thiadiazole]",576,3,12,> 10000,2,28.4,46,
"CCCCC(F)(F)COc1nsnc1C1=CCCN(C)C1 [Example 11, 3-((2,2-Difluorohexyl)oxy)-4-(1-methyl-1,2,5,6-tetrahydropyridin-3-yl)-1,2,5-thiadiazole]",2000,7,3,> 10000,3,29,32,
"CN1CCC=C(c2nsnc2OCCCCC(C)(F)F)C1 [Example 8, 3-((5,5-Difluorohexyl)oxy)-4-(1-methyl-1,2,5,6-tetrahydropyridin-3-yl)-1,2,5-thiadiazole]",711,2,10,> 10000,7,5.7,87,
"CN1CCC=C(c2nsnc2OCCCCCC(F)F)C1 [Example 6, 3-((6,6-difluorohexyl)oxy)-4-(1-methyl-1,2,5,6-tetrahydropyridin-3-yl)-1,2,5-thiadiazole]",413,8,17,> 10000,11,2.5,94,
"CN1CCC=C(c2nsnc2OCCCCCCF)C1 [Example 7, 3-((6-Fluorohexyl)oxy)-4-(1-methyl-1,2,5,6-tetrahydropyridin-3-yl)-1,2,5-thiadiazole]",553,3,13,> 10000,7,3.1,93,
"CN1CCC=C(c2nsnc2OCCCCCC(F)(F)F)C1 [Example 1, 3-(1-Methyl-1,2,5,6-tetrahydropyridin-3-yl)-4-((6,6,6-trifluorohexyl)oxy)-1,2,5-thiadiazole]",447,7,16,> 10000,16,3.7,90,no meaningful changes were observed
